Test results taken from patent publication US7381429B2, “Extracts from sophora species, method for producing the same and their use” (Dr. Willmar Schwabe GmbH & Co., priority 2000, dated 2008).

Columns and labels:
[1] = system: Ishikawa-Var-I cells; conditions: cited from earlier work
[2] = molecular target: T1, human α oestrogen receptor (Homo sapiens, UniProt P03372); test: Reportergen assay for oestrogenic activity with transfected yeast cells; type: cell-based; conditions: yeast cells expressing human α oestrogen receptor, β galactosidase reporter, 72 hours at 32° C.
T1 construct: expressed in transfected cells; host or cells: yeast cells (saccharomyces)
T1 sequence (P03372 1-595): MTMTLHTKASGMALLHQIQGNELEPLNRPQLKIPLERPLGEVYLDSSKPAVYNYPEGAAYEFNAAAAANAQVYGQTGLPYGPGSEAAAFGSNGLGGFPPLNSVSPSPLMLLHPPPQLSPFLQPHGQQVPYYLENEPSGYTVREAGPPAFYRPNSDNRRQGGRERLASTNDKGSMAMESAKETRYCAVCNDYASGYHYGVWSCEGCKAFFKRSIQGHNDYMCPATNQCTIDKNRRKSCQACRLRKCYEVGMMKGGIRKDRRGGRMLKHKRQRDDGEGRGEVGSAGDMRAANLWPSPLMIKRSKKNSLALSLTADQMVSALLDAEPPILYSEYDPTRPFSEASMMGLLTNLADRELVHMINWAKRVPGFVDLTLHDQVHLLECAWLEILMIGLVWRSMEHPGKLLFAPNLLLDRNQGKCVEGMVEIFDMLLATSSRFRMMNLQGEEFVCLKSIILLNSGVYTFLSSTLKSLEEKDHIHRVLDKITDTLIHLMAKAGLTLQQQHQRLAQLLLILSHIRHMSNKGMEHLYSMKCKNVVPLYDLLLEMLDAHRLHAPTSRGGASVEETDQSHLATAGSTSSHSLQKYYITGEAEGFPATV
Experimental: Testing the ethylacetate extracts produced for oestrogenic activity with transfected yeast cells, which express the human α oestrogen receptor.
The testing of extracts for oestrogenic properties was performed with a Reportergen assay, using yeast cells (saccharomyces). These cells are stable with the human α oestrogen receptor and an expression plasmid which contains an oestrogen response element and the gene for the enzyme β galactosidase. All samples were dissolved in DMSO at a concentration of 20 mg/ml, and were given undiluted or after diluting with DMSO at the ratio of 1/10, 1/100 or at a volume of 1 μl to 100 μl culture medium in 96-well flat-bottom micro-titre dishes. Next, 100 μl yeast suspension and the chromogenous substrate chlorophenolred-β-D-galactopyranoside were added. […] The yeast cells were incubated for 72 hours at 32° C., after which absorption of the medium was measured at 540 nm in a micro-titre dish photometer. The samples were sometimes checked twice.

[3] = animal studies; cited from earlier work

## CC(C)=CCc1c(O)cc(O)c2c1O[C@H](c1ccc(O)cc1)CC2=O [8-prenylnaringenine]
[1]; versus 17β oestradiol
  oestrogenic effect compared with 17β oestradiol: only a slightly weaker effect than 17β oestradiol
[1]; versus coumestrol, genistein or daidzein
  oestrogenic potency compared with known phyto-oestrogens: significantly more active than the phyto-oestrogens known so far

## OC[C@H]1O[C@@H](Oc2ccc3c(c2)OC[C@H]2c4cc5c(cc4O[C@@H]32)OCO5)[C@H](O)[C@@H](O)[C@@H]1O [maackiain glucoside]
[2]
  oestrogenic activity in yeast assay: relevant to the effectiveness of the extract

## Oc1ccc2c(c1)OC[C@H]1c3cc4c(cc3O[C@@H]21)OCO4 [maackiain]
[2]
  oestrogenic activity in yeast assay: relevant to the effectiveness of the extract

## O=C1CCC[C@@H]2[C@H]3CCC[N+]4([O-])CCC[C@@H](CN12)[C@@H]34 (some centres unmarked) [oxymatrine]
[3]
  toxic effects: toxic effects could be shown
